# Experimental data from patent US11530226B2, “Azepane inhibitors of menin-MLL interaction” (Janssen Pharmaceutica NV, priority 2016, dated 2022).
# Where “and” joins values, the source holds several entries; their conditions need not be identical. Equal entries are not always repeated. Structures can show the parent of a compound that is named as a salt. Where two headings read alike, the source gives them in different places.
# Experiments:
# MV-4-1 1 cells (MLL-AF4) = experiment: Proliferation assay (spheroid-like growth, 8 d, live-cell imaging), MV-4-11; type: cell-based, human; details: MV-4-11 cells, absolute IC50 from AUC of confluence, read-out: (3) Spheroid assay MV-4-11 (IC50 (μM))
# Experimental: (§1) The anti-proliferative effect of menin/MLL protein/protein interaction inhibitor test compounds was assessed in human leukemia cell lines. The cell lines MV-4-1 1 and MOLM14 harbor MEL translocations and express the MEL fusion proteins MLL-AF4 and MLL-AF9, respectively, as well as the wildtype protein from the second allele. […] K562 was used as a control cell line containing two MLL wildtype alleles in order to exclude compounds that display general cytotoxic effects.
# (§2) MV-4-1 1 and MOLM14 were cultured in RPMI-1640 (Sigma Aldrich) supplemented with 10% fetal bovine serum (HyClone), 2 mM L-glutamine (Sigma Aldrich) and 50 μg/ml gentamycin (Gibco). K562 were propagated in RPMI-1640 (Sigma Aldrich) supplemented with 20% fetal bovine serum (HyClone), 2 mM L-glutamine (Sigma Aldrich) and 50 μg/ml gentamycin (Gibco).
# (§3) In order to assess the anti-proliferative effects, 1,500 MV-4-1 1, 300 MOLM14 or 750 K562 cells were seeded in 200 μl media per well in 96-well round bottom, ultra-low attachment plates (Costar, catalogue number 7007). Cell seeding numbers were chosen based on growth curves to ensure linear growth throughout the experiment. Test compounds were added at different concentrations and the DMSO content was normalized to 0.3%>. Cells were incubated for 8d at 37° C. and 5% C02. Spheroid like growth was monitored in real-time by live-cell imaging (IncuCyteZOOM, Essenbio, 4× objective) acquiring one image every four hours for 8d. Confluence (%) as a measure of spheroid size was determined using an integrated analysis tool.
# (§4) In order to determine the cumulative effect of the test compounds over time, the area under the curve (AUC) in a plot of confluence against time was calculated. Confluence at the beginning of the experiment (t=0) was used as baseline for the AUC calculation.
# (§5) Absolute IC50 values were calculated according to the following procedure: % Control=(AUC sample/AUC control)*100 AUC control=mean AUC of control values(cells without compound/DMSO as vehicle control)
# (§6) A non-linear curve fit was applied using the least squares (ordinary) fit method to the plot of % control versus compound concentration. Based on this, the absolute IC50 value (half maximal inhibitory concentration of the test compound causing an anti-proliferative effect of 50% relative to the vehicle control) was calculated.
# [1] = biological target: T1, terbium chelate-labeled menin / FITC-MBM1 peptide (Menin/MLL) (Homo sapiens, UniProt O00255, T541A); experiment: Menin/MLL homogenous time-resolved fluorescence (HTRF) assay; type: binding; details: read-out: (2) Menin HTRF assay (IC50 (nM))
# T1 construct: Menin (a. a. l-610-6×his tag) was labeled with terbium cryptate as follows
# T1 sequence (O00255 with tags, fused parts or gaps T541A): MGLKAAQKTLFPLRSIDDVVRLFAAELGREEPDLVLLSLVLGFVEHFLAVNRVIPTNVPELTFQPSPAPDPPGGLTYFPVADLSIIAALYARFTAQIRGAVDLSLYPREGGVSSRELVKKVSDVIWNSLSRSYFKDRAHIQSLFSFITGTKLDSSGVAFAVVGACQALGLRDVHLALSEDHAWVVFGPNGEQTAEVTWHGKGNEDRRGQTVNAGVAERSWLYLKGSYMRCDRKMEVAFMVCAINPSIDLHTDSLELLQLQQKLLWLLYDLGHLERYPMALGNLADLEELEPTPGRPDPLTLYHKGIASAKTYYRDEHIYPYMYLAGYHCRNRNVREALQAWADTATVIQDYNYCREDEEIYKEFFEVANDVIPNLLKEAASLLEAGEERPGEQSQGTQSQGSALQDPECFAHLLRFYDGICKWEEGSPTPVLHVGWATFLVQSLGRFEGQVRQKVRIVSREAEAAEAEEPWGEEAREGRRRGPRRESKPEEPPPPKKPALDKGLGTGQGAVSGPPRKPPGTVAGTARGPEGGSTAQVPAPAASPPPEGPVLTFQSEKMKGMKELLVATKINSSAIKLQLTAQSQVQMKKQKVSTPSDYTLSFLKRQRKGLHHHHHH
# Experimental: 2) Menin/MLL Homogenous Time-Resolved Fluorescence (HTRF) Assay
# To an untreated, white 384-well microtiter plate was added 40 nL 200× test compound in DMSO and 4 μL 2× terbium chelate-labeled menin (vide infra for preparation) in assay buffer (40 mM Tris .HCl, pH 7.5, 50 mM NaCl, 1 mM DTT and 0.05% Pluronic F-127). After incubation of test compound and terbium chelate-labeled menin for 5 min at ambient temperature, 4 μL 2×FITC-MBM1 peptide (FITC-P-alanine-SARWRFPARPGT-NH2) in assay buffer was added, the microtiter plate centrifuged at 1000 rpm for 1 min and the assay mixtures incubated for 15 min at ambient temperature. The relative amount of menin ⋅FITC-MBM1 complex present in an assay mixture is determined by measuring the homogenous time-resolved fluorescence (HTRF) of the terbium/FITC donor/acceptor fluorphore pair using a BMG Pherastar plate reader (ex. 337 nm/terbium cm. 490 nm/FITC cm. 520 nm) at ambient temperature. The degree of fluorescence resonance energy transfer (the HTRF value) is expressed as the ratio of the fluorescence emission intensities of the FITC and terbium fluorophores (P^m 520 nm//F^em 490 nm). The final concentrations of reagents in the binding assay are 100 pM terbium chelate-labeled menin, 75 nM FITC-MBM1 peptide and 0.5%) DMSO in assay buffer. Dose-response titrations of test compounds are conducted using an 11 point, three-fold serial dilution scheme, starting typically at 25 μM.
# Compound potencies were determined by first calculating % inhibition at each compound concentration according to equation 1: % inhibition=((HC−LC)−(HTRF^compound−LC))/(HC−LC))*100 (Eqn 1)
# Where LC and HC are the HTRF values of the assay in the presence or absence of a saturating concentration of a compound that competes with FITC-MBM1 for binding to menin, and HTRF^compound is the measured HTRF value in the presence of the test compound. HC and LC HTRF values represent an average of at least 16 replicates per plate.
# Where Bottom and Top are the lower and upper asymptotes of the dose-response curve, respectively, IC50 is the concentration of compound that yields 50% inhibition of signal and h is the Hill coefficient.
# Preparation of Terbium cryptate labeling of Menin: Menin (a. a. l-610-6×his tag) was labeled with terbium cryptate as follows. 2 mg of Menin was buffer exchanged into 1× phosphate buffered saline. 16 uM Menin was incubated with 4-fold molar excess NHS-terbium cryptate (Cisbio Bioassays, Bedford, Mass.) for 2 hours at room temperature. The labeled protein was purified away from free label by running the reaction over a Superdex 200 Increase 10/300 GL column at 0.75 ml/min. Peak fractions were collected, aliquoted and frozen at −80° C.
# MOLM14 cells (MLL-AF9) = experiment: Proliferation assay (spheroid-like growth, 8 d, live-cell imaging), MOLM14; type: cell-based, human; details: Homo sapiens, MOLM-14, 192 h, absolute IC50 from AUC of confluence, read-out: (3) Spheroid assay MOLM14 (IC50 (μM))
# Experimental: as §1, §2, §3, §4, §5, §6
melting point,"IC50 (MV-4-1 1 cells (MLL-AF4); Homo sapiens, MV4-11, 192 h) [µM]",IC50 [1] [nM],IC50 (MOLM14 cells (MLL-AF9)) [µM],IC50 (MV-4-1 1 cells (MLL-AF4)) [µM],Structure (SMILES)
160 °C,–,–,–,–,"C[C@@H](N[C@@H]1CCCN(c2ncnc3sc(CC(F)(F)F)cc23)CC1)c1cnn(C)c1 (single isomer, unassigned) (as salt: HCl) [Compound 54A]"
160 °C,–,–,–,–,"C[C@H](N[C@@H]1CCCN(c2ncnc3sc(CC(F)(F)F)cc23)CC1)c1cnn(C)c1 (single isomer, unassigned) (as salt: HCl) [Compound 54B]"
160 °C,–,–,–,–,"C[C@@H](N[C@H]1CCCN(c2ncnc3sc(CC(F)(F)F)cc23)CC1)c1cnn(C)c1 (single isomer, unassigned) (as salt: HCl) [Compound 54D]"
176 °C,–,–,–,–,"Fc1ccc(CN[C@@H]2CCCN(c3ncnc4sc(CC(F)(F)F)cc34)CC2)c(F)c1 (single isomer, unassigned) (as salt: hydrochloride) [Compound 7A]"
180 °C,–,–,–,–,"Fc1ccc(CN[C@H]2CCCN(c3ncnc4sc(CC(F)(F)F)cc34)CC2)c(F)c1 (single isomer, unassigned) (as salt: hydrochloride) [Compound 7B]"
156 °C,–,–,–,–,"Cc1ccc(CN[C@@H]2CCCN(c3ncnc4sc(CC(F)(F)F)cc34)CC2)c(C)c1 (single isomer, unassigned) (as salt: hydrochloride) [Compound 9A]"
160 °C,–,–,–,–,"Cc1ccc(CN[C@H]2CCCN(c3ncnc4sc(CC(F)(F)F)cc34)CC2)c(C)c1 (single isomer, unassigned) (as salt: hydrochloride) [Compound 9B]"
190 °C,–,–,–,–,"CC(C)[C@H](N[C@H]1CCCN(c2ncnc3sc(CC(F)(F)F)cc23)CC1)C1CNC1 (single isomer, unassigned) (as salt: hydrochloride) [Compound 32]"
200 °C,–,–,–,–,"CC(C)[C@H](NC1CCCN(c2ncnc3sc(CC(F)(F)F)cc23)CC1)C1CNC1 (single isomer, unassigned) (as salt: hydrochloride) [Compound 33]"
188 °C,–,–,–,–,"CC(C)[C@@H](NC1CCCN(c2ncnc3sc(CC(F)(F)F)cc23)CC1)C1CNC1 (single isomer, unassigned) (as salt: hydrochloride) [Compound 34]"
193 °C,–,–,–,–,"CC(C)[C@@H](N[C@@H]1CCCN(c2ncnc3sc(CC(F)(F)F)cc23)CC1)C1CNC1 (single isomer, unassigned) (as salt: hydrochloride) [Compound 35]"
208 °C,–,–,–,–,"CC(C)[C@@H](N[C@H]1CCCN(c2ncnc3sc(CC(F)(F)F)cc23)CC1)C1CNC1 (single isomer, unassigned) (as salt: hydrochloride) [Compound 36]"
150 °C,–,–,–,–,"CN(C)CCN(Cc1ccccc1)[C@@H]1CCCN(c2ncnc3sc(CC(F)(F)F)cc23)CC1 (single isomer, unassigned) (as salt: hydrochloride) [Compound 57A]"
134 °C and 136 °C,–,–,–,–,"C[C@H]1CCN(c2ncnc3sc(CC(F)(F)F)cc23)CC[C@H]1NCc1ccccc1 (single isomer, unassigned) (as salt: hydrochloride) [Compound 68A]"
150 °C,–,–,–,–,"C[C@@H]1CCN(c2ncnc3sc(CC(F)(F)F)cc23)CC[C@@H]1NCc1ccccc1 (single isomer, unassigned) (as salt: hydrochloride) [Compound 68B]"
111 °C and 111.41 °C,2.2,60,–,–,FC(F)(F)Cc1cc2c(N3CCCC(N4Cc5ccccc5C4)CC3)ncnc2s1 (stereo not shown) [Compound 6]
–,5,1320,14.2,–,O=C(NC1CCCN(c2ncnc3sc(CC(F)(F)F)cc23)CC1)C1CC2(CC2)CN1 (stereo not shown) [Compound 10B]
94 °C,–,5790,–,–,CC(C)NC1CCCN(c2ncnc3sc(CC(F)(F)F)cc23)CC1 (stereo not shown) [Compound 12]
110 °C,–,606,–,–,FC(F)(F)Cc1cc2c(N3CCCC(Oc4ccccc4)CC3)ncnc2s1 (stereo not shown) [Compound 15]
–,0.8,21,4.9,–,Cc1ccc(CNC2CCCN(c3ncnc4sc(CC(F)(F)F)cc34)CC2)cc1 (stereo not shown) [Compound 16]
–,1,97,6.1,–,OCc1ccccc1CNC1CCCN(c2ncnc3sc(CC(F)(F)F)cc23)CC1 (stereo not shown) [Compound 21]
–,2.5,78,9.9,–,COc1ccccc1CNC1CCCN(c2ncnc3sc(CC(F)(F)F)cc23)CC1 (stereo not shown) [Compound 22]
–,3.1,150,9.4,–,Cc1cccc(CNC2CCCN(c3ncnc4sc(CC(F)(F)F)cc34)CC2)c1 (stereo not shown) [Compound 23]
164 °C,3.6,396,–,–,CC1CN(c2ncnc3sc(CC(F)(F)F)cc23)CCCC1NCc1ccccc1 (stereo not shown) [Compound 67A]
180 °C,–,348,–,3.7,CC1CN(c2ncnc3sc(CC(F)(F)F)cc23)CCCC1NCc1ccccc1 (stereo not shown) [Compound 67B]
–,4.4,282,7.7,–,CC1CCN(c2ncnc3sc(CC(F)(F)F)cc23)CCC1NCc1ccccc1 (stereo not shown) [Compound 68C]
